{
  "source": "patent US6407085B1",
  "about": "“Medicament containing betasitosterol and/or phytosterol/betasitosterol mixtures” (priority 1997, dated 2002)",
  "key": {"[1]": {"test": "oral tolerability of betasitosterol esters", "format": "in vivo", "details": "taken orally"}, "[2]": {"details": "cited from earlier work"}, "[3]": {"test": "solubility in oils, chloroform and water at room temperature"}, "[4]": {"details": "chloroform; cited from earlier work"}, "[5]": {"test": "dissolving in oils, paraffins, stearates, Vaseline or glycerin with heat", "format": "physicochemical", "details": "for appearance in glycerin after cooling: after heating in glycerin; for appearance in oil after cooling: after heating in oil", "protocol": "The solubility of phytosterol/betasitosterol mixtures and betasitosterol metabolites can be accelerated and improved with respect to yield if the effective ingredients are treated in oil, paraffins, stearates, or Vaseline with the application of heat at temperatures of around 70° C. to 160° C., advantageously at 120° C. to 140° C., advantageously over a period of 30 minutes to 3 hours.\nIf betasitosterol or sodium desoxycholate is heated in diverse natural and mineral oils, paraffins, commercially-available hypoallergenic stearate mixtures, or Vaseline (2 g substance in 100 ml) to 120° C., both substances dissolve fully within 90 minutes. Upon further heating to 150° C. (at 140° C., betasitosterol becomes liquid), betasitosterol dissolves up to around 15% in stearate mixtures, paraffins, and plant and mineral oils. […] In like manner, betasitosterol and sodium desoxycholate can be introduced into glycerin."}, "[6]": {"details": "in vivo; cited from earlier work"}, "psoriasis": {"system": "psoriasis", "test": "salve applied to the skin in psoriasis", "format": "in vivo", "protocol": "If phytosterol/betasitosterol mixtures, when they are dissolved in the above described form in oil, are stirred into a salve base alone or in a mixture with sodium desoxycholate in aqueous solution in a concentration of 0.5 to 2.0% and the salve base is applied to the skin, the itching of neurodermatitis usually is eased after only 2 to 5 minutes. Inflammation processes with redness and swelling are alleviated after 24 to 48 hours. Thus a histamine antagonistic as well as a cortisone-like effect is determined, but without the side effects of the hormone. In the case of psoriasis, the formation of scales is often reduced even in extreme cases only 24 hours after the first application, particularly with the use of the metabolite desoxycholic acid. Here again the use of such substances is completely unproblematic in contrast to a salve with a component of vitamin-D-like structure, which as a result of the resorption of the vitamin-D-like molecule can be applied only to a limited extent because of the danger of overdosing and thus the influencing of calcium metabolism."}},
  "data": [
    {"compound": "CC[C@H](CC[C@@H](C)[C@H]1CC[C@H]2[C@@H]3CC=C4C[C@@H](OC(=O)[C@H](O)[C@@H](O)[C@H](O)[C@H](O)CO)CC[C@]4(C)[C@H]3CC[C@]12C)C(C)C", "note": "[betasitosterol gluconic acid ester]", "values": [
      {"measurement": "tolerability", "setting": "[1]", "result": "free of side effects and very well tolerated"}
    ]},
    {"compound": "CC[C@H](CC[C@@H](C)[C@H]1CC[C@H]2[C@@H]3CC=C4C[C@@H](O)CC[C@]4(C)[C@H]3CC[C@]12C)C(C)C", "note": "[betasitosterol]", "values": [
      {"measurement": "resorption quotient", "setting": "[2]; healthy subjects", "result": "around 5%"},
      {"measurement": "blood count", "setting": "[2]; oral administration of up to 24 g per day", "result": 10, "unit": "mg"},
      {"measurement": "solubility in oil on addition of sodium desoxycholate", "setting": "[3]", "result": "further improved"},
      {"measurement": "solubility in oil at room temperature", "setting": "[3]; linseed oil, safflower oil, neutral oil, standing longer than 24 h at room temperature", "result": "dissolves in sufficient quantity"},
      {"measurement": "solubility (D'ans-Lax)", "setting": "[4]", "result": "soluble in chloroform"},
      {"measurement": "appearance in glycerin after cooling", "setting": "[5]", "result": "slightly opalescent"},
      {"measurement": "appearance in oil after cooling", "setting": "[5]", "result": "slightly opalescent"},
      {"measurement": "dissolving in glycerin", "setting": "[5]; heated to 120° C.", "result": "dissolve completely clear"},
      {"measurement": "amount dissolved", "setting": "[5]; heating to 150° C., stearate mixtures, paraffins, plant and mineral oils", "result": "around 15%"},
      {"measurement": "portion metabolized into cholic acid and chenodesoxycholic acid", "setting": "[6]", "result": "around 20%"}
    ]},
    {"compound": "desoxycholic acid", "values": [
      {"measurement": "appearance in glycerin after cooling", "setting": "[5]", "result": "white pasty mass"},
      {"measurement": "appearance with safflower oil", "setting": "[5]; heated to 120° C.", "result": "cloudy-opalescent emulsion"},
      {"measurement": "time after first application until formation of scales is reduced", "setting": "psoriasis", "result": 24, "unit": "h"}
    ]},
    {"compound": "sodium desoxycholate", "values": [
      {"measurement": "water solubility", "setting": "[3]", "result": "relatively water soluble"},
      {"measurement": "appearance in glycerin after cooling", "setting": "[5]", "result": "remains clear"},
      {"measurement": "appearance in oil after cooling", "setting": "[5]", "result": "remains clear"},
      {"measurement": "dissolving in glycerin", "setting": "[5]; heated to 120° C.", "result": "dissolve completely clear"}
    ]}
  ]
}
